# Laboratory results reported in ChEMBL document CHEMBL1201862, “PubChem BioAssay data set” (2004).
#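 Grown in 96-well plates, cells were treated for 48 hours with each compound at five concentrations. Insufficient inhibition: endpoint recorded as highest concentration tested. At the GI50, growth is halved.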 Calls of active or inactive are those of the source. No stated cut-off is given here; in the data, active = GI50 up to about 1.1 µM and inactive = higher.
# Columns and labels:
# Experiment in all cases: NCI-60 cell line screen, 48 h
# [1] = system: OVCAR-5
# [2] = system: SF-539
# [3] = system: MOLT-4
# [4] = system: RXF 393
# [5] = system: SK-OV-3
# [6] = system: CAKI-1
# [7] = system: HOP-62
# [8] = system: SK-MEL-2
# [9] = system: SF-268
# [10] = system: Hs-578T
# [11] = system: NCI-H23
# [12] = system: EKVX
# [13] = system: CCRF-CEM
# [14] = system: MCF7
# [15] = system: LOX IMVI
# [16] = system: Malme-3M
# [17] = system: SK-MEL-28
# [18] = system: UACC-257
# [19] = system: RPMI-8226
# [20] = system: MDA-MB-231
# [21] = system: HCT-15
# [22] = system: KM12
# [23] = system: U-251
# [24] = system: COLO 205
# [25] = system: TK-10
# [26] = system: NCI-H522
# [27] = system: 786-0
# [28] = system: MDA-MB-435
# [29] = system: DU-145
# [30] = system: SN12C
# [31] = system: HCT-116
# [32] = system: NCI/ADR-RES
# [33] = system: OVCAR-3
# [34] = system: IGROV-1
# [35] = system: SNB-19
# [36] = system: UO-31
# [37] = system: A549
# [38] = system: T47D
# [39] = system: MDA-N
# [40] = system: NCI-H460
# [41] = system: PC-3
# [42] = system: A498
# [43] = system: HL-60
# [44] = system: OVCAR-4
# [45] = system: SR
# [46] = system: K562
# [47] = system: HT-29
# [48] = system: SK-MEL-5
# [49] = system: SW-620
# [50] = system: HCC 2998
# [51] = system: SF-295
# [52] = system: UACC-62
# [53] = system: ACHN
# [54] = system: BT-549
# [55] = system: M14
# [56] = system: OVCAR-8
# [57] = system: NCI-H226
# [58] = system: SNB-75
compound,measurement,setting,value
O=C(O)/C=c1/c2ccccc2n2nc3ccccc3c12,GI50,[1],57.9 µM (inactive)
same,GI50,[2],19.8 µM (inactive)
same,GI50,[3],23 µM (inactive)
same,GI50,[4],49.1 µM (inactive)
same,GI50,[5],22.8 µM (inactive)
same,GI50,[6],37.3 µM (inactive)
same,GI50,[7],31.6 µM (inactive)
same,GI50,[8],39.7 µM (inactive)
same,GI50,[9],38.4 µM (inactive)
same,GI50,[10],23.6 µM (inactive)
same,GI50,[11],27.7 µM (inactive)
same,GI50,[12],37.1 µM (inactive)
same,GI50,[13],33.2 µM (inactive)
same,GI50,[14],35.2 µM (inactive)
same,GI50,[15],21.9 µM (inactive)
same,GI50,[16],25.2 µM (inactive)
same,GI50,[17],26 µM (inactive)
same,GI50,[18],20.9 µM (inactive)
same,GI50,[19],25.8 µM (inactive)
same,GI50,[20],39.1 µM (inactive)
same,GI50,[21],26.8 µM
same,GI50,[22],20.4 µM (inactive)
same,GI50,[23],33.6 µM (inactive)
same,GI50,[24],17.2 µM (inactive)
same,GI50,[25],30.3 µM (inactive)
same,GI50,[26],20.7 µM (inactive)
same,GI50,[27],38.6 µM (inactive)
same,GI50,[28],31.6 µM (inactive)
same,GI50,[29],41.6 µM (inactive)
same,GI50,[30],26.7 µM (inactive)
same,GI50,[31],24.8 µM (inactive)
same,GI50,[32],29.5 µM (inactive)
same,GI50,[33],33.5 µM (inactive)
same,GI50,[34],31.4 µM (inactive)
same,GI50,[35],31.8 µM (inactive)
same,GI50,[36],37.6 µM (inactive)
same,GI50,[37],38.2 µM (inactive)
same,GI50,[38],55.5 µM (inactive)
same,GI50,[39],26 µM (inactive)
same,GI50,[40],30.1 µM (inactive)
same,GI50,[41],> 100 µM (inactive)
same,GI50,[42],22 µM (inactive)
same,GI50,[43],34.1 µM (inactive)
same,GI50,[44],22.8 µM (inactive)
same,GI50,[45],16.6 µM (inactive)
same,GI50,[46],36.6 µM (inactive)
same,GI50,[47],39.3 µM (inactive)
same,GI50,[48],14.2 µM (inactive)
same,GI50,[49],35.6 µM (inactive)
same,GI50,[50],24.1 µM (inactive)
same,GI50,[51],30.8 µM (inactive)
same,GI50,[52],17.5 µM (inactive)
same,GI50,[53],23.8 µM (inactive)
same,GI50,[54],37.4 µM (inactive)
same,GI50,[55],31.2 µM (inactive)
same,GI50,[56],21.5 µM (inactive)
Nc1c(-c2ccccc2)c2ccc([N+](=O)[O-])cc2c(=O)n1-c1cccc(C(=O)O)c1,GI50,[1],> 100 µM (inactive)
same,GI50,[2],> 100 µM (inactive)
same,GI50,[3],> 100 µM (inactive)
same,GI50,[4],> 100 µM (inactive)
same,GI50,[5],> 100 µM (inactive)
same,GI50,[6],> 100 µM (inactive)
same,GI50,[7],> 100 µM (inactive)
same,GI50,[8],> 100 µM (inactive)
same,GI50,[9],> 100 µM (inactive)
same,GI50,[10],61.2 µM (inactive)
same,GI50,[11],> 100 µM (inactive)
same,GI50,[12],> 100 µM (inactive)
same,GI50,[13],94.6 µM (inactive)
same,GI50,[14],> 100 µM (inactive)
same,GI50,[15],> 100 µM (inactive)
same,GI50,[17],> 100 µM (inactive)
same,GI50,[18],> 100 µM (inactive)
same,GI50,[19],> 100 µM (inactive)
same,GI50,[20],> 100 µM (inactive)
same,GI50,[21],> 100 µM
same,GI50,[22],> 100 µM (inactive)
same,GI50,[23],> 100 µM (inactive)
same,GI50,[25],> 100 µM (inactive)
same,GI50,[26],> 100 µM (inactive)
same,GI50,[27],> 10 µM (inactive)
same,GI50,[28],> 100 µM (inactive)
same,GI50,[29],> 100 µM (inactive)
same,GI50,[31],> 100 µM (inactive)
same,GI50,[32],> 100 µM (inactive)
same,GI50,[33],> 100 µM (inactive)
same,GI50,[34],> 100 µM (inactive)
same,GI50,[57],> 100 µM (inactive)
same,GI50,[35],> 100 µM (inactive)
same,GI50,[36],> 100 µM (inactive)
same,GI50,[37],> 100 µM (inactive)
same,GI50,[38],> 100 µM (inactive)
same,GI50,[39],> 100 µM (inactive)
same,GI50,[40],> 100 µM (inactive)
same,GI50,[41],> 100 µM (inactive)
same,GI50,[42],> 100 µM (inactive)
same,GI50,[43],38.3 µM (inactive)
same,GI50,[44],> 100 µM (inactive)
same,GI50,[45],> 100 µM (inactive)
same,GI50,[58],> 100 µM (inactive)
same,GI50,[46],> 100 µM (inactive)
same,GI50,[47],> 100 µM (inactive)
same,GI50,[48],> 100 µM (inactive)
same,GI50,[49],> 100 µM (inactive)
same,GI50,[50],> 100 µM (inactive)
same,GI50,[51],> 100 µM (inactive)
same,GI50,[52],> 100 µM (inactive)
same,GI50,[53],> 100 µM (inactive)
same,GI50,[54],51.9 µM (inactive)
same,GI50,[55],> 100 µM (inactive)
same,GI50,[56],> 100 µM (inactive)
O=c1[nH]nc(Cc2ccccc2)n1CCCl,GI50,[1],> 100 µM (inactive)
same,GI50,[2],> 100 µM (inactive)
same,GI50,[3],> 100 µM (inactive)
same,GI50,[4],90.8 µM (inactive)
same,GI50,[5],> 100 µM (inactive)
same,GI50,[6],> 100 µM (inactive)
same,GI50,[7],> 100 µM (inactive)
same,GI50,[8],> 100 µM (inactive)
same,GI50,[9],> 100 µM (inactive)
same,GI50,[10],> 100 µM (inactive)
same,GI50,[11],> 100 µM (inactive)
same,GI50,[12],> 100 µM (inactive)
same,GI50,[13],> 100 µM (inactive)
same,GI50,[14],> 100 µM (inactive)
same,GI50,[15],> 100 µM (inactive)
same,GI50,[16],> 100 µM (inactive)
same,GI50,[17],> 100 µM (inactive)
same,GI50,[19],> 100 µM (inactive)
same,GI50,[20],> 100 µM (inactive)
same,GI50,[21],> 100 µM
same,GI50,[22],> 100 µM (inactive)
same,GI50,[23],> 100 µM (inactive)
same,GI50,[24],> 100 µM (inactive)
same,GI50,[27],> 100 µM (inactive)
same,GI50,[28],> 100 µM (inactive)
same,GI50,[29],> 100 µM (inactive)
same,GI50,[30],> 100 µM (inactive)
same,GI50,[31],> 100 µM (inactive)
same,GI50,[32],> 100 µM (inactive)
same,GI50,[33],> 100 µM (inactive)
same,GI50,[34],> 100 µM (inactive)
same,GI50,[57],> 100 µM (inactive)
same,GI50,[35],> 100 µM (inactive)
same,GI50,[36],> 100 µM (inactive)
same,GI50,[38],> 100 µM (inactive)
same,GI50,[39],> 100 µM (inactive)
same,GI50,[40],> 100 µM (inactive)
same,GI50,[41],> 100 µM (inactive)
same,GI50,[42],> 100 µM (inactive)
same,GI50,[43],> 100 µM (inactive)
same,GI50,[44],> 100 µM (inactive)
same,GI50,[45],> 100 µM (inactive)
same,GI50,[58],> 100 µM (inactive)
same,GI50,[46],> 100 µM (inactive)
same,GI50,[47],> 100 µM (inactive)
same,GI50,[49],> 100 µM (inactive)
same,GI50,[50],> 100 µM (inactive)
same,GI50,[51],> 100 µM (inactive)
same,GI50,[52],> 100 µM (inactive)
same,GI50,[54],> 100 µM (inactive)
same,GI50,[55],> 100 µM (inactive)
same,GI50,[56],> 100 µM (inactive)
